Test results from PubChem BioAssay (NCI).
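Results reflect a 48-hour exposure of cells in 96-well plates to compound at five concentrations. Definition used: TGI = concentration required for complete inhibition of growth.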

Legend:
Test in all cases: growth of human tumour cells (NCI), 48 h
[1] = test system: CCRF-CEM leukemia
[2] = test system: IGROV1 ovarian
[3] = test system: HL-60(TB) leukemia
[4] = test system: U251 CNS
[5] = test system: NCI-H460 lung
[6] = test system: SF-295 CNS
[7] = test system: UACC-257 melanoma
[8] = test system: SK-MEL-28 melanoma
[9] = test system: MOLT-4 leukemia
[10] = test system: NCI-H522 lung
[11] = test system: OVCAR-8 ovarian
[12] = test system: HOP-92 NSCLC
[13] = test system: M19-MEL melanoma
[14] = test system: M14 melanoma
[15] = test system: SR leukemia
[16] = test system: K-562 leukemia
[17] = test system: ACHN renal
[18] = test system: KM20L2 colon
[19] = test system: RXF 393 renal
[20] = test system: OVCAR-5 ovarian
[21] = test system: DMS 273 small cell lung
[22] = test system: KM12 colon
[23] = test system: SNB-19 CNS
[24] = test system: SK-OV-3 ovarian
[25] = test system: HOP-62 NSCLC
[26] = test system: A498 renal
[27] = test system: TK-10 renal
[28] = test system: SNB-78 CNS
[29] = test system: HCT-116 colon
[30] = test system: HT29 colon
[31] = test system: UACC-62 melanoma
[32] = test system: UO-31 renal
[33] = test system: DMS 114 small cell lung
[34] = test system: NCI-H23 lung
[35] = test system: EKVX NSCLC
[36] = test system: A549 NSCLC
[37] = test system: NCI/ADR-RES ovarian
[38] = test system: SW-620 colon
[39] = test system: LOX IMVI melanoma
[40] = test system: MALME-3M melanoma
[41] = test system: DU-145 prostate
[42] = test system: T-47D breast
[43] = test system: SNB-75 CNS
[44] = test system: HS 578T breast
[45] = test system: HCT-15 colon
[46] = test system: CAKI-1 renal
[47] = test system: NCI-H226 lung
[48] = test system: OVCAR-3 ovarian
[49] = test system: RPMI-8226 leukemia
[50] = test system: MDA-MB-231 breast
[51] = test system: SK-MEL-5 melanoma
[52] = test system: SF-539 CNS
[53] = test system: OVCAR-4 ovarian
[54] = test system: HCC-2998 colon
[55] = test system: SF-268 CNS
[56] = test system: MDA-MB-435
[57] = test system: BT-549 breast
[58] = test system: PC-3 prostate
[59] = test system: 786-0 renal
[60] = test system: SN12C renal
[61] = test system: SK-MEL-2 melanoma
[62] = test system: MDA-N
[63] = test system: COLO 205 colon
[64] = test system: MCF7 breast

Q: How did the TGI [1] turn out when `CCCC(=O)OC1C(C2COC(C)(C)O2)OC2OC(C)(C)OC21` (centres undefined) was run?
A: > 100 µM

Q: And the TGI [2]?
A: > 100 µM

Q: What about the TGI [3] of the same molecule?
A: > 100 µM

Q: And the TGI [4]?
A: > 100 µM

Q: And the TGI [5]?
A: > 100 µM

Q: And the TGI [6]?
A: > 100 µM

Q: What about the TGI [7] of the same molecule?
A: > 100 µM

Q: And the TGI [8]?
A: > 100 µM

Q: What about the TGI [9] of the same molecule?
A: > 100 µM

Q: And the TGI [10]?
A: > 100 µM

Q: And the TGI [11]?
A: > 100 µM

Q: What about the TGI [12] of the same molecule?
A: > 100 µM

Q: And the TGI [13]?
A: > 100 µM

Q: And the TGI [14]?
A: > 100 µM

Q: And the TGI [15]?
A: > 100 µM

Q: What about the TGI [16] of the same molecule?
A: > 100 µM

Q: And the TGI [17]?
A: > 100 µM

Q: What about the TGI [18] of the same molecule?
A: > 100 µM

Q: What about the TGI [19] of the same molecule?
A: > 100 µM

Q: And the TGI [20]?
A: > 100 µM

Q: What about the TGI [21] of the same molecule?
A: > 100 µM

Q: And the TGI [22]?
A: > 100 µM

Q: What about the TGI [23] of the same molecule?
A: > 100 µM

Q: And the TGI [24]?
A: > 100 µM

Q: And the TGI [25]?
A: > 100 µM

Q: And the TGI [26]?
A: > 100 µM

Q: What about the TGI [27] of the same molecule?
A: > 100 µM

Q: What about the TGI [28] of the same molecule?
A: > 100 µM

Q: What about the TGI [29] of the same molecule?
A: > 100 µM

Q: And the TGI [30]?
A: > 100 µM

Q: And the TGI [31]?
A: > 100 µM

Q: What about the TGI [32] of the same molecule?
A: > 100 µM

Q: And the TGI [33]?
A: > 100 µM

Q: And the TGI [34]?
A: > 100 µM

Q: What about the TGI [35] of the same molecule?
A: > 100 µM

Q: How did the TGI [36] turn out when `Cn1c(CC(O)c2nc3ccccc3n2C)nc2ccccc21` (centres undefined) was run?
A: > 100 µM

Q: What about the TGI [37] of the same molecule?
A: > 67.9 µM

Q: And the TGI [38]?
A: > 47 µM

Q: What about the TGI [1] of the same molecule?
A: 17.3 µM

Q: And the TGI [39]?
A: > 47.7 µM

Q: What about the TGI [2] of the same molecule?
A: > 40.6 µM

Q: What about the TGI [3] of the same molecule?
A: 4.13 µM

Q: And the TGI [40]?
A: > 35.5 µM

Q: What about the TGI [41] of the same molecule?
A: > 21.7 µM

Q: And the TGI [4]?
A: > 48.8 µM

Q: And the TGI [5]?
A: > 46.9 µM

Q: What about the TGI [6] of the same molecule?
A: > 100 µM

Q: What about the TGI [7] of the same molecule?
A: > 47.8 µM

Q: What about the TGI [8] of the same molecule?
A: > 60.9 µM

Q: What about the TGI [42] of the same molecule?
A: > 16.7 µM

Q: What about the TGI [9] of the same molecule?
A: > 27.9 µM

Q: What about the TGI [10] of the same molecule?
A: > 8.21 µM

Q: And the TGI [11]?
A: > 47.8 µM

Q: And the TGI [43]?
A: > 100 µM

Q: And the TGI [44]?
A: > 24.2 µM

Q: And the TGI [45]?
A: > 49.5 µM

Q: And the TGI [12]?
A: > 38.7 µM

Q: What about the TGI [46] of the same molecule?
A: > 100 µM

Q: What about the TGI [14] of the same molecule?
A: > 49.8 µM

Q: And the TGI [15]?
A: > 100 µM

Q: And the TGI [16]?
A: > 47.9 µM

Q: What about the TGI [17] of the same molecule?
A: > 33.9 µM

Q: And the TGI [19]?
A: > 39.4 µM

Q: What about the TGI [47] of the same molecule?
A: > 72.3 µM

Q: What about the TGI [48] of the same molecule?
A: > 19.4 µM

Q: What about the TGI [20] of the same molecule?
A: > 74.3 µM

Q: And the TGI [49]?
A: > 19.1 µM

Q: What about the TGI [22] of the same molecule?
A: > 100 µM

Q: And the TGI [50]?
A: > 53.7 µM

Q: What about the TGI [51] of the same molecule?
A: > 42.8 µM

Q: And the TGI [52]?
A: > 56 µM

Q: What about the TGI [53] of the same molecule?
A: > 30.1 µM

Q: What about the TGI [23] of the same molecule?
A: > 87.7 µM

Q: What about the TGI [54] of the same molecule?
A: > 100 µM

Q: What about the TGI [24] of the same molecule?
A: > 45.2 µM

Q: And the TGI [25]?
A: > 19.1 µM

Q: What about the TGI [55] of the same molecule?
A: > 28.9 µM

Q: What about the TGI [56] of the same molecule?
A: > 44.4 µM

Q: What about the TGI [26] of the same molecule?
A: > 51.1 µM

Q: And the TGI [27]?
A: > 36.4 µM

Q: What about the TGI [57] of the same molecule?
A: > 63.2 µM

Q: And the TGI [29]?
A: > 34.9 µM

Q: What about the TGI [58] of the same molecule?
A: > 58.8 µM

Q: What about the TGI [59] of the same molecule?
A: > 68.6 µM

Q: And the TGI [30]?
A: > 54.3 µM

Q: What about the TGI [31] of the same molecule?
A: > 61.5 µM

Q: What about the TGI [32] of the same molecule?
A: > 9.39 µM

Q: What about the TGI [60] of the same molecule?
A: > 57.9 µM

Q: And the TGI [61]?
A: > 58.5 µM

Q: And the TGI [62]?
A: > 100 µM

Q: And the TGI [63]?
A: > 35.8 µM

Q: And the TGI [64]?
A: > 47.2 µM

Q: And the TGI [34]?
A: > 48.6 µM

Q: And the TGI [35]?
A: > 100 µM
